± gives the standard deviation of the averaged measurements.
What was measured:
[1] = compound: Cn1cc(C2=Nc3cc(NC(=O)C(N)C4CCCCC4)cc4c3C2=CNNC4=O)cn1; experiment: area under dose-response curve of surviving fraction (unscaled, Aref=0) (surviving fraction x log10(nM)); higher = more resistant; conditions: exposure time: 5 days; dose range 0.5-1000 nM
Outline: (§1)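 Inhibitor was applied to tumour cell lines at eight concentrations (0.5 to 1000 nM) for five days in 384-well plates. Luminescence from CellTiter-Glo, scaled to DMSO-only wells, gave surviving fractions in three screens per line, and these were fitted by 3-parameter logistic regression with the drc R package. The area under the curve is an unscaled activity area. Aref was 0, and dose was on a log10 scale.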

MDV3100 [2] = compound: T1, CNC(=O)c1ccc(N2C(=S)N(c3ccc(C#N)c(C(F)(F)F)c3)C(=O)C2(C)C)cc1F [MDV3100]; experiment: as above; conditions: exposure time: 5 days; dose range 0.5-1000 nM
Outline: as §1

AFATINIB [3] = compound: T2, CN(C)C/C=C/C(=O)Nc1cc2c(Nc3ccc(F)c(Cl)c3)ncnc2cc1O[C@H]1CCOC1 [AFATINIB]; experiment: as above; conditions: exposure time: 5 days; dose range 0.5-1000 nM
Outline: as §1

SAPACITABINE [4] = compound: T3, CCCCCCCCCCCCCCCC(=O)Nc1ccn([C@@H]2O[C@H](CO)[C@@H](O)[C@@H]2C#N)c(=O)n1 [SAPACITABINE]; experiment: as above; conditions: exposure time: 5 days; dose range 0.5-1000 nM
Outline: as §1

SNX-5422 [5] = compound: T4, CC1(C)CC(=O)c2c(C(F)(F)F)nn(-c3ccc(C(N)=O)c(N[C@H]4CC[C@H](OC(=O)CN)CC4)c3)c2C1 [SNX-5422]; experiment: as above; conditions: exposure time: 5 days; dose range 0.5-1000 nM
Outline: as §1

BI-2536 [6] = compound: T5, CC[C@@H]1C(=O)N(C)c2cnc(Nc3ccc(C(=O)NC4CCN(C)CC4)cc3OC)nc2N1C1CCCC1 [BI-2536]; experiment: as above; conditions: exposure time: 5 days; dose range 0.5-1000 nM
Outline: as §1

TIOGUANINE [7] = compound: T6, Nc1nc2[nH]cnc2c(=S)[nH]1 [TIOGUANINE]; experiment: as above; conditions: exposure time: 5 days; dose range 0.5-1000 nM
Outline: as §1

[8] = compound: Cn1cc(C2=Nc3cc(NC(=O)C(N)C4CCCCC4)cc4c3C2=CNNC4=O)cn1; experiment: surviving fraction relative to DMSO-only wells; higher = less growth inhibition; conditions: exposure time: 5 days
Outline: (§2)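 After seeding at 250–500 cells per well in 384-well plates and a 24-hour wait, log-phase tumour cell lines were exposed without interruption for five days to inhibitors at 0.5, 1, 5, 10, 50, 100, 500 and 1000 nM. CellTiter-Glo luminescence was recorded after 10 minutes at room temperature. Viability is reported as surviving fraction, the luminescence normalised to the median of DMSO-only wells.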

CANERTINIB = compound: C=CC(=O)Nc1cc2c(Nc3ccc(F)c(Cl)c3)ncnc2cc1OCCCN1CCOCC1 [CANERTINIB]; experiment: as above; conditions: exposure time: 5 days
Outline: as §2

MDV3100 [9] = compound: T1, MDV3100; experiment: as above; conditions: exposure time: 5 days
Outline: as §2

AFATINIB [10] = compound: T2, AFATINIB; experiment: as above; conditions: exposure time: 5 days
Outline: as §2

SAPACITABINE [11] = compound: T3, SAPACITABINE; experiment: as above; conditions: exposure time: 5 days
Outline: as §2

SNX-5422 [12] = compound: T4, SNX-5422; experiment: as above; conditions: exposure time: 5 days
Outline: as §2

BI-2536 [13] = compound: T5, BI-2536; experiment: as above; conditions: exposure time: 5 days
Outline: as §2

TIOGUANINE [14] = compound: T6, TIOGUANINE; experiment: as above; conditions: exposure time: 5 days
Outline: as §2

## SJSA1 BONE
[1]
  area under dose-response curve: 3.02
MDV3100 [2]
  area under dose-response curve: 2.71
AFATINIB [3]
  area under dose-response curve: 3.26
SAPACITABINE [4]
  area under dose-response curve: 4.77
SNX-5422 [5]
  area under dose-response curve: 2.07
BI-2536 [6]
  area under dose-response curve: 1.58
TIOGUANINE [7]
  area under dose-response curve: 3.46
[8]; 0.5 nM
  surviving fraction: 1.023 ± 0.0096
[8]; 1 nM
  surviving fraction: 0.984 ± 0.02
[8]; 5 nM
  surviving fraction: 1.01 ± 0.061
[8]; 10 nM
  surviving fraction: 1.06 ± 0.036
[8]; 50 nM
  surviving fraction: 1.03 ± 0.021
[8]; 100 nM
  surviving fraction: 1.006 ± 0.0057
[8]; 500 nM
  surviving fraction: 0.526 ± 0.044
[8]; 1000 nM
  surviving fraction: 0.337 ± 0.018
CANERTINIB; 0.5 nM
  surviving fraction: 1.23 ± 0.12
CANERTINIB; 1 nM
  surviving fraction: 1.2 ± 0.07
CANERTINIB; 5 nM
  surviving fraction: 1.08 ± 0.15
CANERTINIB; 10 nM
  surviving fraction: 1.31 ± 0.055
CANERTINIB; 50 nM
  surviving fraction: 0.0523 ± 0.0021
CANERTINIB; 100 nM
  surviving fraction: 1.64 ± 0.052
CANERTINIB; 500 nM
  surviving fraction: 1.66 ± 0.053
CANERTINIB; 1000 nM
  surviving fraction: 1.74 ± 0.12
MDV3100 [9]; 0.5 nM
  surviving fraction: 0.471 ± 0.053
MDV3100 [9]; 1 nM
  surviving fraction: 1.27 ± 0.084
MDV3100 [9]; 5 nM
  surviving fraction: 1.43 ± 0.11
MDV3100 [9]; 10 nM
  surviving fraction: 0.332 ± 0.037
MDV3100 [9]; 50 nM
  surviving fraction: 0.0403 ± 0.0031
MDV3100 [9]; 100 nM
  surviving fraction: 1.49 ± 0.034
MDV3100 [9]; 500 nM
  surviving fraction: 0.0293 ± 0.0025
MDV3100 [9]; 1000 nM
  surviving fraction: 1.49 ± 0.023
AFATINIB [10]; 0.5 nM
  surviving fraction: 1.05 ± 0.014
AFATINIB [10]; 1 nM
  surviving fraction: 0.9563 ± 0.0055
AFATINIB [10]; 5 nM
  surviving fraction: 1.11 ± 0.017
AFATINIB [10]; 10 nM
  surviving fraction: 1.04 ± 0.05
AFATINIB [10]; 50 nM
  surviving fraction: 1.15 ± 0.063
AFATINIB [10]; 100 nM
  surviving fraction: 1.07 ± 0.023
AFATINIB [10]; 500 nM
  surviving fraction: 0.995 ± 0.041
AFATINIB [10]; 1000 nM
  surviving fraction: 0.613 ± 0.033
SAPACITABINE [11]; 0.5 nM
  surviving fraction: 1.24 ± 0.072
SAPACITABINE [11]; 1 nM
  surviving fraction: 1.18 ± 0.095
SAPACITABINE [11]; 5 nM
  surviving fraction: 1.19 ± 0.25
SAPACITABINE [11]; 10 nM
  surviving fraction: 1.21 ± 0.066
SAPACITABINE [11]; 50 nM
  surviving fraction: 1.65 ± 0.058
SAPACITABINE [11]; 100 nM
  surviving fraction: 1.74 ± 0.087
SAPACITABINE [11]; 500 nM
  surviving fraction: 1.65 ± 0.1
SAPACITABINE [11]; 1000 nM
  surviving fraction: 1.75 ± 0.11
SNX-5422 [12]; 0.5 nM
  surviving fraction: 1.06 ± 0.041
SNX-5422 [12]; 1 nM
  surviving fraction: 1.02 ± 0.051
SNX-5422 [12]; 5 nM
  surviving fraction: 1.12 ± 0.088
SNX-5422 [12]; 10 nM
  surviving fraction: 1.14 ± 0.034
SNX-5422 [12]; 50 nM
  surviving fraction: 0.484 ± 0.03
SNX-5422 [12]; 100 nM
  surviving fraction: 0.177 ± 0.0095
SNX-5422 [12]; 500 nM
  surviving fraction: 0.0583 ± 0.0035
SNX-5422 [12]; 1000 nM
  surviving fraction: 0.0523 ± 0.0015
BI-2536 [13]; 0.5 nM
  surviving fraction: 1.01 ± 0.067
BI-2536 [13]; 1 nM
  surviving fraction: 1.02 ± 0.068
BI-2536 [13]; 5 nM
  surviving fraction: 0.882 ± 0.011
BI-2536 [13]; 10 nM
  surviving fraction: 0.252 ± 0.033
BI-2536 [13]; 50 nM
  surviving fraction: 0.174 ± 0.01
BI-2536 [13]; 100 nM
  surviving fraction: 0.191 ± 0.0061
BI-2536 [13]; 500 nM
  surviving fraction: 0.267 ± 0.02
BI-2536 [13]; 1000 nM
  surviving fraction: 0.236 ± 0.015
TIOGUANINE [14]; 0.5 nM
  surviving fraction: 1.05 ± 0.038
TIOGUANINE [14]; 1 nM
  surviving fraction: 1.05 ± 0.092
TIOGUANINE [14]; 5 nM
  surviving fraction: 1.033 ± 0.0062
TIOGUANINE [14]; 10 nM
  surviving fraction: 1.01 ± 0.035
TIOGUANINE [14]; 50 nM
  surviving fraction: 1.1 ± 0.041
TIOGUANINE [14]; 100 nM
  surviving fraction: 1.08 ± 0.036
TIOGUANINE [14]; 500 nM
  surviving fraction: 1.016 ± 0.0081
TIOGUANINE [14]; 1000 nM
  surviving fraction: 0.912 ± 0.019

Source: the supplement of paper PMC6045584
